Reference: PMC4444998 (Journal of Natural Products, 2015)

What was measured:
Type in all cases: biochemical
bovine α-chymotrypsin = test: Chymotrypsin inhibition assay (Ala-Ala-Phe-AMC, fluorimetry); details: for inhibition of chymotrypsin activity: cyclotides at 25 µM and 75 µM, triplicate
Procedure: (§1) Inhibitory activity was performed in triplicate in 96-well microtiter plates. Bovine trypsin (10 μL of a 10 ng/μL solution; Roche, Basel, Switzerland) or bovine α-chymotrypsin (10 μL of a 2.5 ng/μL solution; Sigma-Aldrich) was preincubated for 15 min at 37 °C with buffer (125 μL of a 20 mM Tris-HCl solution, pH 8.0) and with 3 μL of the cyclotide solution or ddH2O as negative control. After preincubation, trypsin substrate (Bz-Arg-AMC-HCl, 10 μL of a 3 mM solution prepared in 40% 1,4-dioxane; Bachem, Bubendorf, Switzerland) or chymotrypsin substrate (Ala-Ala-Phe-AMC, 10 μL of a 3 mM solution prepared in 40% 1,4-dioxane; Sigma-Aldrich), respectively, was added, and the reaction was incubated while shaking (90 rpm) for 1 h at 37 °C. The reaction was stopped with sodium acetate (150 μL, 1 M, pH 4), and the formation of AMC was measured by fluorimetry. The excitation and emission wavelengths were 360 ± 40 and 485 ± 20 nm, respectively. Phenylmethane-sulfonylfluoride (PMSF; 3 μL of a 5 mM solution in DMSO) was used as a positive control of inhibition; additional controls with DMSO solution only were also performed. Data were calculated as percentage of inhibition and are presented as mean ± STDEV (of three replicates).

Bovine trypsin = test: Trypsin inhibition assay (Bz-Arg-AMC, fluorimetry); details: for inhibition of trypsin protease activity: cyclotides kalata B1 or psysol 2 at 25 µM and 75 µM, respectively, triplicate
Procedure: as §1

[1] = target: T1, human prolyl oligopeptidase (POP) (Homo sapiens, UniProt P48147); test: Prolyl oligopeptidase inhibition assay (Z-Gly-Pro-AMC, fluorimetry)
T1 construct: made in house
T1 sequence (P48147 1-710): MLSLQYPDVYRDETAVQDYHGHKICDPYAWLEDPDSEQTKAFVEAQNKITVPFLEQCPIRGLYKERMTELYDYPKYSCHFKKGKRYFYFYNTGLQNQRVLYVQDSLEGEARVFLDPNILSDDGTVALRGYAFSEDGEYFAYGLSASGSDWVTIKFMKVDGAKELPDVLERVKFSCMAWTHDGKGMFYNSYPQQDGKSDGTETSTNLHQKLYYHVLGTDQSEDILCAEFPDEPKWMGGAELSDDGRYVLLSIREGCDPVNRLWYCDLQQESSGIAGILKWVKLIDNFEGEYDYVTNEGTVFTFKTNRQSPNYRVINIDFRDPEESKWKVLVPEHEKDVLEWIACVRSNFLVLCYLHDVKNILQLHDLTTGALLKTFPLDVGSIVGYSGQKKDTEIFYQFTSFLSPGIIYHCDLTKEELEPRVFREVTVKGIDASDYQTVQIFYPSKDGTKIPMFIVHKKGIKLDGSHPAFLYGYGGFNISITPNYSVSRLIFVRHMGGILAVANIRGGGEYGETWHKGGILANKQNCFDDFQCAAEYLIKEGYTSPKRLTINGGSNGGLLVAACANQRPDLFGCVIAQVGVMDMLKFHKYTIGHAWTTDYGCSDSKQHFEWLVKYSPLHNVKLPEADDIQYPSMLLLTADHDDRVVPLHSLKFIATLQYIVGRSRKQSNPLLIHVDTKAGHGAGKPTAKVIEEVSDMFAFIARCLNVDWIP

Row | SMILES | inhibition of chymotrypsin activity (positive control) (bovine α-chymotrypsin; 100 µM) | inhibition of trypsin activity (positive control) (Bovine trypsin; 100 µM) | IC50 ([1]; POP enzyme inhibition potency IC50, synthetic cyclotide, mean of three replicates) [µM] | inhibition of chymotrypsin activity (bovine α-chymotrypsin) | inhibition of trypsin protease activity (Bovine trypsin) | selectivity toward inhibition of POP over trypsin and chymotrypsin ([1]; POP IC50 compared with no inhibition of trypsin/chymotrypsin at 25 and 75 μM)
1 | O=S(=O)(F)Cc1ccccc1 [PMSF, Phenylmethane-sulfonylfluoride] | completel y blocked | able to inhibit |  |  |  | 
2 | CC[C@H](C)[C@@H]1NC(=O)[C@@H]2CCCN2C(=O)[C@H](CC(C)C)NC(=O)CNC(=O)[C@H](CC(N)=O)NC(=O)[C@H](CCCNC(=N)N)NC(=O)[C@H]([C@@H](C)O)NC(=O)[C@@H]2CSSC[C@@H]3NC(=O)[C@H]([C@@H](C)O)NC(=O)CNC(=O)CNC(=O)[C@H](C(C)C)NC(=O)[C@@H]4CSSC[C@H](NC(=O)[C@H]([C@@H](C)O)NC(=O)[C@H](CSSC[C@H](NC1=O)C(=O)NCC(=O)N[C@@H](CCC(=O)O)C(=O)N[C@@H](CO)C(=O)N4)NC(=O)CNC(=O)[C@@H]1CCCN1C(=O)[C@H]([C@@H](C)O)NC(=O)[C@H](CC(N)=O)NC3=O)C(=O)N[C@@H]([C@@H](C)O)C(=O)N[C@@H](Cc1c[nH]c3ccccc13)C(=O)N1CCC[C@H]1C(=O)N[C@@H](C(C)C)C(=O)N2 [psysol 2 (1), psysol 2] |  |  | 27.8 | had no effect | not inhibited | 
3 | CC(C)C[C@@H]1NC(=O)CNC(=O)[C@H](CC(N)=O)NC(=O)[C@H](CCCNC(=N)N)NC(=O)[C@H]([C@@H](C)O)NC(=O)[C@@H]2CSSC[C@@H]3NC(=O)[C@H]([C@@H](C)O)NC(=O)CNC(=O)CNC(=O)[C@H](C(C)C)NC(=O)[C@@H]4CSSC[C@H](NC(=O)[C@H]([C@@H](C)O)NC(=O)[C@H](CSSC[C@H](NC(=O)[C@H](C(C)C)NC(=O)[C@@H]5CCCN5C1=O)C(=O)NCC(=O)N[C@@H](CCC(=O)O)C(=O)N[C@@H]([C@@H](C)O)C(=O)N4)NC(=O)CNC(=O)[C@@H]1CCCN1C(=O)[C@H]([C@@H](C)O)NC(=O)[C@H](CC(N)=O)NC3=O)C(=O)N[C@@H](CO)C(=O)N[C@@H](Cc1c[nH]c3ccccc13)C(=O)N1CCC[C@H]1C(=O)N[C@@H](C(C)C)C(=O)N2 [kalata B1] |  |  |  | had no effect | not inhibited | at least an order of magnitude more selective
